From US4174396A, “7,10-Dimethyl-5,9-imino-4,5,8,9-tetrahydro-cyclooct[b]thiophenes and a process for obtaining it” (Laboratories Made, S.A., priority 1978, dated 1979)

Experiments:
albino Swiss I.C.R. mice [1] = test: Thermal analgesia, 55° C. hot-plate technique; assay type: in vivo; conditions: for Jumping time in sec. x ± S.E.M.: 50 mg/kg intraperitoneally, 30 minutes after dosing, 55° C. hot-plate, average ± standard error of the mean, control 64 ± 7.911
Method: The thermal analgesic effect has been studied in albino Swiss I.C.R. mice. The 55° C. hot-plate technique has been used. Batches of 10 mice were made.
The products under study were administered intraperitoneally. After 30 minutes the mice were placed on the hot-plate and note was made of the time it took them to jump, in seconds. Batches were made of control animals injected only with distilled water.

albino Swiss I.C.R. mice [2] = test: Acute toxicity (LD50, intraperitoneal, Litchfield-Wilcoxen); assay type: in vivo; conditions: both sexes, deaths noted 48 hours after treatment
Method: (§1) Acute toxicity studies have been made in albino Swiss I.C.R. mice, of both sexes, of a weight of 30±2 g, kept without food for 24 hours prior to the experiment. Temperature and relative humidity of the atmosphere were kept constant. The products were administered intraperitoneally, the number of deaths having been noted 48 hours after treatment. The lethal dose (LD50) was calculated by the Litchfield-Wilcoxen test.

white Swiss I.C.R. mice = test: Chemical analgesia, acetic acid writhing technique; assay type: in vivo; conditions: for No. of writhes x ± S.E.M: 25 mg/kg intraperitoneally, 0.25 ml of 1% acetic acid after 30 minutes, writhes noted 20 minutes after acetic acid, control 130 ± 7.764
Method: The analgesic effect has been studied in white Swiss I.C.R. mice, with the acetic acid writhing technique. Batches of 10 mice were made.
The products under study were administered intraperitoneally, and after 30 minutes 0.25 ml of 1% acetic acid were injected intraperitoneally. A batch of control animals received only the acetic acid. The number of writhes in each mouse were noted 20 minutes after the acetic acid was administered.

[3] = Acute toxicity (LD50, intraperitoneal, Litchfield-Wilcoxen); assay type: in vivo, albino Swiss I.C.R. mice; conditions: mouse, in vivo, ip, mice, both sexes, deaths noted 48 hours after treatment
Method: as §1

Row | Compound | Jumping time in sec. x ± S.E.M. (albino Swiss I.C.R. mice [1]) | LD50 (albino Swiss I.C.R. mice [2]) | No. of writhes x ± S.E.M (white Swiss I.C.R. mice) | thermal analgesic activity (in words) (albino Swiss I.C.R. mice [1]; hot-plate, compared with dextropropoxyphene) | LD50 at 48 h [3] | Signif. of differences, Dextropropox. (white Swiss I.C.R. mice; No. of writhes, 25 mg/kg, versus dextropropoxyphene) | chemical analgesic activity (in words) (white Swiss I.C.R. mice; acetic acid writhing, compared with dextropropoxyphene)
1 | CCC(=O)O[C@](Cc1ccccc1)(c1ccccc1)[C@H](C)CN(C)C [Dextropropoxyphene, reference compound] | 164 ± 7.319 s | 140 mg/kg | 68.4 ± 5.258 |  |  |  | 
2 | CC1=CC2Cc3ccsc3C(C1)N2C (stereo not drawn) [I, 7,10-dimethyl-5,9-imino-4,5,8,9-tetrahydrocyclooct[b]thiophene] | 114.2 ± 11.168 s |  | 85.3 ± 13.915 | shows analgesic activity, but of less potency than that of dextropropoxyphene | 159 mg/kg | N.S. | shows the same analgesic activity as dextropropoxyphene
